Test results taken from US9932354B2, “Imidazo-oxadiazole and imidazo-thiadiazole derivatives” (Ares Trading S.A., priority 2012, dated 2018).
pIC50: −log10 of the molar value.

What was measured:
[1] = system: Amyloid-β peptide release (AβTotal), HEK cells overexpressing APP (HEK-APP); test: Amyloid-β peptide release (AβTotal) assay, AlphaLISA on supernatant of HEK-APP cells; assay type: cell-based; conditions: ratio Abtot vs Ab42, HEK-APP cells, 24 h
[2] = system: Amyloid-β peptide release (Aβ42), HEK cells overexpressing APP (HEK-APP); test: Amyloid-β peptide release (Aβ42) assay, AlphaLISA on supernatant of HEK-APP cells; assay type: cell-based; conditions: Homo sapiens, HEK293, 24 h incubation with compound, read-out: Ab42 IC50 Ranges
Procedure, shortened: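 HEK-APP cells treated with compounds for 24 h at 37 °C, 5% CO2. Supernatant Aβ42 or total Aβ measured by AlphaLISA after 4.5 h with antibody beads (6E10 acceptor beads for total). IC50 values derived.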

With `Cc1ncc2sc(-c3nnc(NCc4ccccc4F)o3)nn12` [Example 104, (2-Fluoro-benzyl)-[5-(5-methyl-imidazo[5,1-b][1,3,4]thiadiazol-2-yl)-[1,3,4]oxadiazol-2-yl]-amine] as the compound, how does the Abtot/Ab42 selectivity ranges [1] read?
The Abtot/Ab42 selectivity ranges was “d (d: 10 fold > selectivity)”.

What about the pIC50 [2] of the same compound?
The pIC50 was 5.66 to 6.00.

What does the source list for `Cc1ncc2sc(C(=O)N(C)Cc3ccccc3)nn12` [Example 98, 5-Methyl-imidazo[5,1-b][1,3,4]thiadiazole-2-carboxylic acid benzyl-methyl-amide]?
Abtot/Ab42 selectivity ranges [1]: d (d: 10 fold > selectivity); pIC50 [2]: 5.66 to 6.00

How did the Abtot/Ab42 selectivity ranges [1] turn out when `COc1cc(NC(=O)Cc2cc(C)ccc2C)ccc1-c1nn2c(C)ncc2s1` [Example 126, 2-(2,5-Dimethyl-phenyl)-N-[3-methoxy-4-(5-methyl-imidazo[5,1-b][1,3,4]thiadiazol-2-yl)-phenyl]-acetamide] was run?
Its Abtot/Ab42 selectivity ranges is “d (d: 10 fold > selectivity)”.

What about the pIC50 [2] of the same compound?
Its pIC50 is 6.00 to 6.30.

What does the source list for `Cc1ccc(C2CCCN2C(=O)c2nn3c(C)ncc3s2)cc1` (stereo not shown) [Example 119, (5-Methyl-imidazo[5,1-b][1,3,4]thiadiazol-2-yl)-(2-p-tolyl-pyrrolidin-1-yl)-methanone]?
Abtot/Ab42 selectivity ranges [1]: d (d: 10 fold > selectivity); pIC50 [2]: 6.30 to 7.00

Which results are given for `Cc1ncc2oc(-c3ccc(Nc4ccnc(NCc5ccccc5)n4)cc3)nn12` [Example 72, N2-benzyl-N4-(4-(5-methylimidazo[5,1-b][1,3,4]oxadiazol-2-yl)phenyl)pyrimidine-2,4-diamine]?
Abtot/Ab42 selectivity ranges [1]: d (d: 10 fold > selectivity); pIC50 [2]: 5.66 to 6.00

How did the Abtot/Ab42 selectivity ranges [1] turn out when `Cc1ncc2oc(-c3ccc(NC(=O)Cc4ccc(OC(F)(F)F)cc4)cc3)nn12` [Example 6, N-[4-(5-Methyl-imidazo[5,1-b][1,2,4]oxadiazol-2-yl)-phenyl]-2-(4-trifluoromethoxy-phenyl)-acetamide] was run?
Its Abtot/Ab42 selectivity ranges is “c (c: 50 fold > selectivity ≥ 10 fold)”.

And the pIC50 [2]?
Its pIC50 is 6.00 to 6.30.

Which results are given for `Cc1ncc2oc(-c3ccc(NC(=O)Cc4cccc(Cl)c4)cc3)nn12` [Example 63, 2-(3-chlorophenyl)-N-(4-(5-methylimidazo[5,1-b][1,3,4]oxadiazol-2-yl)phenyl)acetamide]?
Abtot/Ab42 selectivity ranges [1]: b (b: 100 fold > selectivity ≥ 50 fold); pIC50 [2]: 6.00 to 6.30

How did the Abtot/Ab42 selectivity ranges [1] turn out when `Cc1cccc(CC(=O)Nc2ccc(-c3nn4c(C)ncc4o3)cc2)c1` [Example 2, N-[4-(5-Methyl-imidazo[5,1-b][1,2,4]oxadiazol-2-yl)-phenyl]-2-m-tolyl-acetamide] was run?
Its Abtot/Ab42 selectivity ranges is “c (c: 50 fold > selectivity ≥ 10 fold)”.

And the pIC50 [2]?
Its pIC50 is 5.66 to 6.00.

Which Abtot/Ab42 selectivity ranges [1] does the source give for `Cc1ncc2sc(C(=O)NCc3ccc(Oc4ccccc4)cc3)nn12` [Example 107, 5-Methyl-imidazo[5,1-b][1,3,4]thiadiazole-2-carboxylic acid 4-phenoxy-benzylamide] here?
Its Abtot/Ab42 selectivity ranges is “c (c: 50 fold > selectivity ≥ 10 fold)”.

And the pIC50 [2]?
The pIC50 was 6.30 to 7.00.

For `Cc1ncc2oc(-c3ccc(NC(=O)Cc4cccc(C(F)(F)F)c4)cn3)nn12` [Example 14, N-[6-(5-Methyl-imidazo[5,1-b][1,2,4]oxadiazol-2-yl)-pyridin-3-yl]-2-(3-trifluoromethyl-phenyl)-acetamide], which Abtot/Ab42 selectivity ranges [1] is on record?
Its Abtot/Ab42 selectivity ranges is “c (c: 50 fold > selectivity ≥ 10 fold)”.

And the pIC50 [2]?
Its pIC50 is 5.66 to 6.00.

`Cc1ncc2oc(-c3ccc(NC(=O)Cc4ccccc4OC(F)(F)F)cn3)nn12` [Example 81, N-[6-(5-Methyl-imidazo[5,1-b][1,2,4]oxadiazol-2-yl)-pyridin-3-yl]-2-(2-trifluoromethoxy-phenyl)-acetamide] was tested. Which Abtot/Ab42 selectivity ranges [1] did it give?
Its Abtot/Ab42 selectivity ranges is “c (c: 50 fold > selectivity ≥ 10 fold)”.

What about the pIC50 [2] of the same compound?
Its pIC50 is 5.66 to 6.00.

Which Abtot/Ab42 selectivity ranges [1] does the source give for `Cc1ncc2oc(-c3ccc(NC(=O)Cc4ccc(Cl)c(Cl)c4)cn3)nn12` [Example 12, 2-(3,4-Dichloro-phenyl)-N-[6-(5-methyl-imidazo[5,1-b][1,2,4]oxadiazol-2-yl)-pyridin-3-yl]-acetamide] here?
The Abtot/Ab42 selectivity ranges was “c (c: 50 fold > selectivity ≥ 10 fold)”.

And the pIC50 [2]?
Its pIC50 is 6.00 to 6.30.

Which results are given for `Cc1ncc2sc(C(=O)N3CCCC(c4ccc(F)cc4)C3)nn12` (stereo not shown) [Example 109, [3-(4-Fluoro-phenyl)-piperidin-1-yl]-(5-methyl-imidazo[5,1-b][1,3,4]thiadiazol-2-yl)-methanone]?
Abtot/Ab42 selectivity ranges [1]: d (d: 10 fold > selectivity); pIC50 [2]: 5.66 to 6.00

With `Cc1cccc(CNc2ccnc(Nc3ccc(-c4nn5c(C)ncc5o4)cc3)n2)c1` [Example 75, N4-(3-methylbenzyl)-N2-(4-(5-methylimidazo[5,1-b][1,3,4]oxadiazol-2-yl)phenyl)pyrimidine-2,4-diamine] as the compound, how does the Abtot/Ab42 selectivity ranges [1] read?
The Abtot/Ab42 selectivity ranges was “d (d: 10 fold > selectivity)”.

And the pIC50 [2]?
The pIC50 was 5.66 to 6.00.

`Cc1ncc2sc(C(=O)N3CCCC3c3ccc(C(F)(F)F)cc3)nn12` (stereo not shown) [Example 112, (5-Methyl-imidazo[5,1-b][1,3,4]thiadiazol-2-yl)-[2-(4-trifluoromethyl-phenyl)-pyrrolidin-1-yl]-methanone] was tested. Which Abtot/Ab42 selectivity ranges [1] did it give?
The Abtot/Ab42 selectivity ranges was “d (d: 10 fold > selectivity)”.

And the pIC50 [2]?
The pIC50 was 6.30 to 7.00.

Which results are given for `COc1ccccc1CC(=O)Nc1ccc(-c2nn3c(C)ncc3o2)cc1` [Example 53, 2-(2-Methoxy-phenyl)-N-[4-(5-methyl-imidazo[5,1-b][1,2,4]oxadiazol-2-yl)-phenyl]-acetamide]?
Abtot/Ab42 selectivity ranges [1]: d (d: 10 fold > selectivity); pIC50 [2]: 5.66 to 6.00

For `Cc1ncc2oc(-c3ccc(NC(=O)Cc4cccc(Oc5ccccc5)c4)cn3)nn12` [Example 15, N-[6-(5-Methyl-imidazo[5,1-b][1,2,4]oxadiazol-2-yl)-pyridin-3-yl]-2-(3-phenoxy-phenyl)-acetamide], which Abtot/Ab42 selectivity ranges [1] is on record?
The Abtot/Ab42 selectivity ranges was “b (b: 100 fold > selectivity ≥ 50 fold)”.

What about the pIC50 [2] of the same compound?
Its pIC50 is 6.00 to 6.30.

How did the Abtot/Ab42 selectivity ranges [1] turn out when `Cc1cc(-c2nn3c(C)ncc3o2)ccc1NC(=O)Cc1ccc(Cl)cc1` [Example 44, 2-(4-chlorophenyl)-N-(2-methyl-4-(5-methylimidazo[5,1-b][1,3,4]oxadiazol-2-yl)phenyl)acetamide] was run?
Its Abtot/Ab42 selectivity ranges is “b (b: 100 fold > selectivity ≥ 50 fold)”.

What about the pIC50 [2] of the same compound?
The pIC50 was 6.00 to 6.30.

Which results are given for `Cc1ncc2oc(-c3ccc(NC(=O)C4(c5ccc(Cl)cc5)CCC4)cn3)nn12` [Example 84, 1-(4-Chloro-phenyl)-cyclobutanecarboxylic acid [6-(5-methyl-imidazo[5,1-b][1,2,4]oxadiazol-2-yl)-pyridin-3-yl]-amide]?
Abtot/Ab42 selectivity ranges [1]: c (c: 50 fold > selectivity ≥ 10 fold); pIC50 [2]: 6.00 to 6.30

Which results are given for `Cc1ncc2oc(-c3ccc(NC(=O)c4ccc(F)c(OC(F)(F)F)c4)cn3)nn12` [Example 16, 4-Fluoro-N-[6-(5-methyl-imidazo[5,1-b][1,2,4]oxadiazol-2-yl)-pyridin-3-yl]-3-trifluoromethoxy-benzamide]?
Abtot/Ab42 selectivity ranges [1]: d (d: 10 fold > selectivity); pIC50 [2]: 5.66 to 6.00

How did the Abtot/Ab42 selectivity ranges [1] turn out when `Cc1ncc2oc(-c3ccc(NC(=O)Cc4cccc(C#N)c4)cc3)nn12` [Example 64, 2-(3-cyanophenyl)-N-(4-(5-methylimidazo[5,1-b][1,3,4]oxadiazol-2-yl)phenyl)acetamide] was run?
The Abtot/Ab42 selectivity ranges was “b (b: 100 fold > selectivity ≥ 50 fold)”.

And the pIC50 [2]?
The pIC50 was 6.00 to 6.30.

How did the Abtot/Ab42 selectivity ranges [1] turn out when `Cc1ncc2oc(-c3ccc(C(=O)NCc4csc5ccc(Cl)cc45)cc3)nn12` [Example 88, N-((5-chlorobenzo[b]thiophen-3-yl)methyl)-4-(5-methylimidazo[5,1-b][1,3,4]oxadiazol-2-yl)benzamide] was run?
Its Abtot/Ab42 selectivity ranges is “c (c: 50 fold > selectivity ≥ 10 fold)”.

What about the pIC50 [2] of the same compound?
The pIC50 was 5.66 to 6.00.

How did the Abtot/Ab42 selectivity ranges [1] turn out when `Cc1ncc2sc(C(=O)N3CCCC3c3ccc(Br)cc3)nn12` (stereo not shown) [Example 110, [2-(4-Bromo-phenyl)-pyrrolidin-1-yl]-(5-methyl-imidazo[5,1-b][1,3,4]thiadiazol-2-yl)-methanone] was run?
The Abtot/Ab42 selectivity ranges was “d (d: 10 fold > selectivity)”.

And the pIC50 [2]?
Its pIC50 is > 7.00.
